Values of other authors in patent US9020605B2, “Electroporation device” (OncoSec Medical Incorporated, priority 2012, dated 2015).

Settings: P being the partition coefficient between octanol and water

bleomycin
log P: very negative
